Laboratory results from patent US4448962A, “Substituted quinoline carboxylic acid derivatives” (Kyorin Seiyaku Kabushiki Kaisha, priority 1978, dated 1984).
Converted amounts (≈) assume the structure as drawn. Structures can show the parent of a compound that is named as a salt. Where two headings read alike, the source gives them in different places.

Legend:
Assay in all cases: Antibacterial spectrum (Minimum Inhibitory Concentration)
Assay type in all cases: cell-based
Ser. marcescens IID 620 = conditions: Serratia marcescens, IID620; Ser. marcescens IID 620, Gram -; read-out: Minimum Inhibitory Concentration
Excerpt: (§1) The antibacterial tests were done according to the method authorized by the Chemotherapeutic Society of Japan.

Ser. marcescens IID 619 = conditions: Serratia marcescens, IID619; Ser. marcescens IID 619, Gram -; read-out: Minimum Inhibitory Concentration
Excerpt: as §1

[1] = tested on: Pseudomonas aeruginosa V-1; conditions: V1; Pseudomonas aeruginosa V-1, Gram -; read-out: Minimum Inhibitory Concentration
Excerpt: as §1

[2] = tested on: Proteus vulgaris IFO 3167
Excerpt: as §1

Shigella sonnei IID 969 = conditions: IID969; Shigella sonnei IID 969, Gram -
Excerpt: as §1

Ps. aeruginosa IFO 12689 = conditions: Pseudomonas aeruginosa, IFO12689; Ps. aeruginosa IFO 12689, Gram -; read-out: Minimum Inhibitory Concentration
Excerpt: as §1

[3] = tested on: Escherichia coli NIHJ JC-2
Excerpt: as §1

[4] = tested on: Staphylococcus aureus 209P; conditions: Staphylococcus aureus 209P, Gram +; read-out: Minimum Inhibitory Concentration
Excerpt: as §1

[5] = tested on: Klebsiella pneumoniae IFO 3512
Excerpt: as §1

Ps. aeruginosa IID 1130 = conditions: Pseudomonas aeruginosa, IID1130; Ps. aeruginosa IID 1130, Gram -; read-out: Minimum Inhibitory Concentration
Excerpt: as §1

[6] = tested on: Serratia marcescens IID 618; conditions: IID618; Serratia marcescens IID 618, Gram -; read-out: Minimum Inhibitory Concentration
Excerpt: as §1

E. coli ATCC 10536 = conditions: Escherichia coli
Excerpt: as §1

Ps. aeruginosa IID 1210 = conditions: Pseudomonas aeruginosa, IID1210; Ps. aeruginosa IID 1210, Gram -; read-out: Minimum Inhibitory Concentration
Excerpt: as §1

[7] = tested on: Salmonella enteritidies IID 604; conditions: IID604; Salmonella enteritidies IID 604, Gram -; read-out: Minimum Inhibitory Concentration
Excerpt: as §1

Pr. vulgaris XK Denken = conditions: Proteus vulgaris, read-out: Minimum Inhibitory Concentration
Excerpt: as §1

Sta. aureus ATCC 14775 = conditions: Staphylococcus aureus, ATCC14775; Sta. aureus ATCC 14775, Gram +; read-out: Minimum Inhibitory Concentration
Excerpt: as §1

[8] = tested on: Bacillus subtilis PCI 219
Excerpt: as §1

[9] = tested on: Mycobacterium smegmatis IFO 3083; conditions: Mycolicibacterium smegmatis, IFO3083; Mycobacterium smegmatis IFO 3083, Gram +; read-out: Minimum Inhibitory Concentration
Excerpt: as §1

[10] = IFO3167, Proteus vulgaris IFO 3167, Gram -, read-out: Minimum Inhibitory Concentration
[11] = NIHJJC2, Escherichia coli NIHJ JC-2, Gram -, read-out: Minimum Inhibitory Concentration
[12] = IFO3512, Klebsiella pneumoniae IFO 3512, Gram -, read-out: Minimum Inhibitory Concentration
[13] = ATCC10536, E. coli ATCC 10536, Gram -, read-out: Minimum Inhibitory Concentration
[14] = PCI219, Bacillus subtilis PCI 219, Gram +, read-out: Minimum Inhibitory Concentration
[15] = Proteus vulgaris, IFO3167, read-out: Minimum Inhibitory Concentration
[16] = ATCC10536, read-out: Minimum Inhibitory Concentration

Row | Structure (SMILES) | MIC (Ser. marcescens IID 620) [µg/mL] | MIC (Ser. marcescens IID 619) [µg/mL] | MIC [1] [µg/mL] | MIC [2, 10] [µg/mL] | MIC (Shigella sonnei IID 969) [µg/mL] | MIC (Ps. aeruginosa IFO 12689) [µg/mL] | MIC [3, 11] [µg/mL] | MIC [4] [µg/mL] | MIC [5, 12] [µg/mL] | MIC (Ps. aeruginosa IID 1130) [µg/mL] | MIC [6] [µg/mL] | MIC (E. coli ATCC 10536; [13]) [µg/mL] | MIC (Ps. aeruginosa IID 1210) [µg/mL] | MIC [7] [µg/mL] | MIC (Pr. vulgaris XK Denken; Pr. vulgaris XK Denken, Gram -) [µg/mL] | MIC (Sta. aureus ATCC 14775) [µg/mL] | MIC [8, 14] [µg/mL] | MIC [2, 15] [µg/mL] | MIC (E. coli ATCC 10536; [16]) [µg/mL] | also measured
1 | CCn1cc(C(=O)O)c(=O)c2cc(Br)c(N3CCNCC3)cc21 [Example 22, 1-ethyl-6-bromo-dihydro-4-oxo-7-(1-piperazinyl)quinoline-3-carboxylic acid hydrochloride] | 0.78 | 3.13 | 12.5 | 0.39 | 0.39 | 50 | 0.39 | 3.13 | 0.39 | 50 | 0.78 | 0.78 | 100 | 1.56 | 1.56 | 12.5 | 1.56 | – | – | –
2 | CCOC(=O)CN1CCN(c2cc3c(cc2Cl)c(=O)c(C(=O)O)cn3CC)CC1 [Example 13, 1-ethyl-6-chloro-7-(4-ethoxycarbonylmethyl-1-piperazinyl)-4-oxo-1,4-dihydroquinoline-3-carboxylic acid] | – | – | > 100 | 100 (≈ 237 µM) | – | > 100 | 100 (≈ 237 µM) | > 100 | 6.25 (≈ 14.8 µM) | – | – | 100 (≈ 237 µM) | – | – | 50 (≈ 119 µM) | – | 3.13 (≈ 7.42 µM) | – | – | MIC [9]: 25 µg/mL (≈ 59.3 µM)
3 | CCn1cc(C(=O)O)c(=O)c2cc(F)c(N3CCN(Cc4ccc([N+](=O)[O-])cc4)CC3)cc21 [Example 27, 1-ethyl-1,4-dihydro-6-fluoro-7-[4-(p-nitrobenzyl)-1-piperazinyl]-4-oxo-3-carboxylic acid] | – | – | > 50 | – | 6.25 (≈ 13.8 µM) | > 50 | – | 1.56 (≈ 3.43 µM) | 0.1 (≈ 0.22 µM) | – | – | – | – | – | 12.5 (≈ 27.5 µM) | 3.13 (≈ 6.89 µM) | 0.1 (≈ 0.22 µM) | 6.25 (≈ 13.8 µM) | 6.25 (≈ 13.8 µM) | MIC ([3]; Escherichia coli, NIHJJC2, read-out: Minimum Inhibitory Concentration): 6.25 µg/mL (≈ 13.8 µM)
4 | CN1CCN(c2cc3c(cc2F)c(=O)c(C(=O)O)cn3CCF)CC1 [Example 6, 1-(2-fluoroethyl)-6-fluoro-7-(4-methyl-1-piperazinyl)-4-oxo-1,4-dihydroquinoline-3-carboxylic acid] | 0.2 (≈ 0.569 µM) | 0.2 (≈ 0.569 µM) | 3.13 (≈ 8.91 µM) | – | < 0.1 | 3.13 (≈ 8.91 µM) | < 0.1 | 0.39 (≈ 1.11 µM) | – | 6.25 (≈ 17.8 µM) | 0.2 (≈ 0.569 µM) | 0.2 (≈ 0.569 µM) | 6.25 (≈ 17.8 µM) | 0.78 (≈ 2.22 µM) | – | 0.78 (≈ 2.22 µM) | – | < 0.1 | – | MIC ([5]; Klebsiella pneumoniae, IFO3512, read-out: Minimum Inhibitory Concentration): < 0.1 µg/mL; MIC (Pr. vulgaris XK Denken): < 0.1 µg/mL; MIC ([8]; Bacillus subtilis, PCI219, read-out: Minimum Inhibitory Concentration): < 0.1 µg/mL
5 | CCn1cc(C(=O)O)c(=O)c2cc(F)c(N3CCNC(=O)C3)cc21 [Example 8, 1-ethyl-1,4-dihydro-6-fluoro-7-(3-oxo-1-piperazinyl)-4-oxoquinoline-3-carboxylic acid] | 6.25 (≈ 18.8 µM) | 12.5 (≈ 37.5 µM) | 12.5 (≈ 37.5 µM) | 0.78 (≈ 2.34 µM) | – | 25 (≈ 75 µM) | 0.39 (≈ 1.17 µM) | 3.13 (≈ 9.39 µM) | 0.1 (≈ 0.3 µM) | 25 (≈ 75 µM) | 6.25 (≈ 18.8 µM) | 0.78 (≈ 2.34 µM) | > 25 | 12.5 (≈ 37.5 µM) | 0.39 (≈ 1.17 µM) | 6.25 (≈ 18.8 µM) | 0.78 (≈ 2.34 µM) | – | – | –
6 | CCn1cc(C(=O)O)c(=O)c2cc(F)c(N3CCN(C4OC(=O)c5ccccc54)CC3)cc21 (stereo not drawn) [Example 28, 1-ethyl-1,4-dihydro-6-fluoro-4-oxo-7-(4-phthalidyl-1-piperazinyl)quinoline-3-carboxylic acid] | 0.1 (≈ 0.222 µM) | 0.2 (≈ 0.443 µM) | 0.78 (≈ 1.73 µM) | ≤ 0.05 | – | 1.56 (≈ 3.46 µM) | ≤ 0.05 | 0.78 (≈ 1.73 µM) | ≤ 0.05 | 1.56 (≈ 3.46 µM) | 0.1 (≈ 0.222 µM) | – | 1.56 (≈ 3.46 µM) | 0.1 (≈ 0.222 µM) | 0.2 (≈ 0.443 µM) | 3.13 (≈ 6.93 µM) | 0.2 (≈ 0.443 µM) | – | 0.1 (≈ 0.222 µM) | –
